From the supplement of paper PMC10307832

Columns and labels:
Experiment in all cases: relative viability (nuclei count vs DMSO), 5 days (fraction); higher = more cells survive
[1] = compound: CN1CCC(CNc2ccc3ncc(-c4cccc(OC(F)(F)F)c4)n3n2)CC1 [SGI-1776] + Cc1cc(Nc2cc(N3CCN(C)CC3)nc(Sc3ccc(NC(=O)C4CC4)cc3)n2)n[nH]1 [Tozasertib] (partner 0.1 µM)
Method in brief: (§1)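 After 5 days of treatment, lung cancer cells in 1536-well plates were fixed and stained in a single step (final 0.05% Triton X-100, 1% formaldehyde, 1 ug/ml Hoechst) and their nuclei counted on 4× images. Treatment had been applied by pin tool the day after seeding as one drug alone or as a fixed anchor-drug dose with five library-drug doses (not always all listed) in √10 steps. Relative viability is the nuclei count of treated wells divided by that of vehicle wells, and values are medians of duplicate plates.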

[2] = compound: Nc1ccccc1NC(=O)c1ccc(CNC(=O)OCc2cccnc2)cc1 [Entinostat] + CC(=O)c1c(C)c2cnc(Nc3ccc(N4CCNCC4)cn3)nc2n(C2CCCC2)c1=O [Palbociclib] (partner 0.5 µM)
Method in brief: as §1

[3] = compound: Nc1ccccc1NC(=O)c1ccc(CNC(=O)OCc2cccnc2)cc1 [Entinostat] + Cc1nc(NC(=O)N2CCC[C@H]2C(N)=O)sc1-c1ccnc(C(C)(C)C(F)(F)F)c1 [Alpelisib] (partner 2 µM)
Method in brief: as §1

[4] = compound: Nc1ccccc1NC(=O)c1ccc(CNC(=O)OCc2cccnc2)cc1 [Entinostat] + Nc1ncn([C@H]2C[C@H](O)[C@@H](CO)O2)c(=O)n1 [Decitabine] (partner 2 µM)
Method in brief: as §1

Row | Cell Line | relative viability ([1]; first compound 0.08 µM) | relative viability ([1]; first compound 0.8 µM) | relative viability ([1]; first compound 2.53 µM) | relative viability ([1]; first compound 8 µM) | relative viability ([2]; first compound 0.02 µM) | relative viability ([2]; first compound 0.06325 µM) | relative viability ([2]; first compound 0.2 µM) | relative viability ([2]; first compound 0.6325 µM) | relative viability ([2]; first compound 2 µM) | relative viability ([3]; first compound 0.02 µM) | relative viability ([3]; first compound 0.06325 µM) | relative viability ([3]; first compound 0.2 µM) | relative viability ([3]; first compound 0.6325 µM) | relative viability ([3]; first compound 2 µM) | relative viability ([4]; first compound 0.02 µM) | relative viability ([4]; first compound 0.06325 µM) | relative viability ([4]; first compound 0.2 µM) | relative viability ([4]; first compound 0.6325 µM) | relative viability ([4]; first compound 2 µM)
1 | NCI-H3122 | 0.443 | 0.343 | 0.334 | 0.2 | 0.191 | 0.217 | 0.208 | 0.181 | 0.187 | 0.777 | 0.881 | 0.786 | 0.733 | 0.605 | 0.439 | 0.47 | 0.477 | 0.339 | 0.243
2 | NCI-H1944 | 0.247 | 0.252 | 0.253 | 0.226 | 0.301 | 0.286 | 0.234 | 0.223 | 0.176 | 0.81 | 0.774 | 0.556 | 0.422 | 0.273 | 0.391 | 0.372 | 0.258 | 0.25 | 0.245
3 | NCI-H358 | 0.0986 | 0.0957 | 0.102 | 0.0836 | 0.134 | 0.14 | 0.17 | 0.127 | 0.125 | 0.807 | 0.962 | 0.965 | 0.551 | 0.284 | 0.188 | 0.201 | 0.173 | 0.153 | 0.137
4 | NCI-H1755 | 0.626 | 0.521 | 0.452 | 0.373 | 0.439 | 0.454 | 0.446 | 0.407 | 0.342 | 0.87 | 0.921 | 0.838 | 0.512 | 0.353 | 0.681 | 0.71 | 0.583 | 0.494 | 0.45
5 | A-427 | 0.19 | 0.212 | 0.141 | 0.158 | 0.555 | 0.537 | 0.463 | 0.401 | 0.368 | 1.01 | 1.1 | 1.05 | 0.943 | 0.845 | 0.536 | 0.507 | 0.528 | 0.477 | 0.438
6 | SK-LU-1 | 0.397 | 0.265 | 0.212 | 0.207 | 0.361 | 0.395 | 0.361 | 0.311 | 0.316 | 0.954 | 0.962 | 0.943 | 0.555 | 0.458 | 0.643 | 0.805 | 0.638 | 0.473 | 0.418
7 | NCI-H838 | 0.262 | 0.265 | 0.195 | 0.213 | 0.254 | 0.224 | 0.28 | 0.236 | 0.171 | 1.03 | 1.15 | 1.13 | 0.72 | 0.301 | 0.484 | 0.541 | 0.477 | 0.431 | 0.341
8 | LOU-NH91 | 0.711 | 0.594 | 0.459 | 0.341 | 0.466 | 0.581 | 0.532 | 0.531 | 0.508 | 0.701 | 0.747 | 0.718 | 0.592 | 0.605 | 0.813 | 0.788 | 0.802 | 0.771 | 0.689
9 | BEN | 0.523 | 0.599 | 0.62 | 0.453 | 0.543 | 0.466 | 0.457 | 0.454 | 0.4 | 1.21 | 0.944 | 1.02 | 0.6 | 0.275 | 0.774 | 0.956 | 0.657 | 0.447 | 0.345
10 | NCI-H2085 | 0.858 | 0.617 | 0.463 | 0.389 | 0.438 | 0.441 | 0.43 | 0.4 | 0.421 | 0.947 | 0.946 | 0.766 | 0.634 | 0.502 | 0.552 | 0.545 | 0.51 | 0.483 | 0.405
11 | LCLC-103H | 0.495 | 0.506 | 0.424 | 0.211 | 0.526 | 0.438 | 0.406 | 0.429 | 0.427 | 1.04 | 1.09 | 0.894 | 0.783 | 0.571 | 0.714 | 0.72 | 0.757 | 0.488 | 0.472
12 | ABC-1 | 0.175 | 0.134 | 0.173 | 0.175 | 0.591 | 0.788 | 0.61 | 0.658 | 0.41 | 0.949 | 1.14 | 0.966 | 0.661 | 0.48 | 1.04 | 1.41 | 1.1 | 0.91 | 0.626
13 | NCI-H650 | 0.823 | 0.688 | 0.373 | 0.185 | 0.412 | 0.349 | 0.361 | 0.257 | 0.167 | 1.18 | 1.13 | 1.03 | 0.763 | 0.339 | 0.312 | 0.336 | 0.252 | 0.278 | 0.226
14 | EPLC-272H | 0.326 | 0.194 | 0.194 | 0.175 | 0.406 | 0.334 | 0.364 | 0.282 | 0.215 | 0.955 | 0.998 | 0.795 | 0.526 | 0.38 | 0.409 | 0.383 | 0.325 | 0.25 | 0.218
15 | EKVX | 0.4 | 0.398 | 0.307 | 0.235 | 0.467 | 0.434 | 0.343 | 0.326 | 0.242 | 0.942 | 0.989 | 0.771 | 0.48 | 0.317 | 0.307 | 0.351 | 0.281 | 0.207 | 0.244
16 | NCI-H1666 | 0.667 | 0.44 | 0.406 | 0.436 | 0.672 | 0.684 | 0.697 | 0.65 | 0.565 | 1.21 | 0.856 | 0.872 | 0.318 | 0.322 | 0.887 | 0.793 | 0.707 | 0.669 | 0.511
17 | HCC-15 | 0.386 | 0.312 | 0.118 | 0.112 | 0.734 | 0.674 | 0.572 | 0.454 | 0.273 | 0.86 | 0.919 | 0.705 | 0.488 | 0.243 | 0.622 | 0.508 | 0.46 | 0.261 | 0.151
